The values below come from patent publication US20240408071A1, “NOVEL COMBINATION OF SEROTONIN RECEPTOR (5-HTR2B) ANTAGONIST AND AN IMMUNOMODULATOR AND CHEMOTHERAPEUTIC DRUGS FOR INHIBITION OF CANCER” (NATIONAL CENTRE FOR CELL SCIENCE, priority 2021, published 2024).

The test system of this test is B16F10 melanoma tumor. Kind of test: Adoptive transfer of lymph node cells into NRG mice bearing MC38 and B16F10 tumors: B16F10 flank. It counts as in vivo. As to conditions: same recipient mice, other flank (FIG. 11B). The protocol: FIG. 11 depicts the effect of 5-HTR antagonists on the antigen-specific CTL response MC38 tumor model in mice: (A) Representative experimental plan of the adoptive transfer experiment where NRG mice. In brief, NRG mice were inoculated with MC38 on one flank and B16F10 cells on the other. These mice received total lymph node cells from naïve C57BL/6J mice or MC38 tumor-bearing control or RS-127445 treated mice. (B) Tumor volume data from the above-described experiment was measured and plotted (C) Immunocytochemistry data showing expression of H2-Kb-[…]^+ (red) on MC38 cells transfected with pCL-neo-OVA plasmid on the right side and MC38 cells without transfection. DAPI is used as a counterstain. (D-E) C7BL/6J mice were inoculated with an MC38-ova cell line and treated with RS-127445 or left untreated. After 10 days of such treatment, Total lymph node cells were harvested tagged with CFSE, and cultured in the presence of ovalbumin protein (50 μg/ml) for 5 days. After 5 days cells were checked for CFSE expression by flow cytometry to check proliferation. Here is the data (D) showing the CFSE in CD8^+ cells. The statistical data of the total percentage of CFSE^− CD8 T cells corresponding with the percentage of proliferated CD8 T cells were plotted. […]

SMILES strings stand for the structures.

In the case of `CC(C)c1cc(-c2ccc(F)c3ccccc23)nc(N)n1` [RS-127445], the “B16F10 tumor growth after transfer of antagonist primed total immune cells” value was “failed to control B16F10 tumor growth”.
